One test concerns C6 cells. Kind of test: Growth of C6 cells (SRB). In kind it is cell-based. Particulars: Rattus norvegicus, 2%. From the text: The assay is the same as the assay set forth in EXAMPLE 10, except that C6 cells (ATCC 107) are used instead of A431 cells.
Compound of formula VI inhibited the growth rate of C6 cells as illustrated in Table 11.

Another test deals with 3T3EGFR. As to the kind of experiment: BrdU incorporation assay, 3T3EGFR, EGF. In kind it is cell-based. In general terms: Uptake of a labelled nucleoside into DNA is a usual measure of proliferation.
A further test has as its target human FLK-1 (Homo sapiens, UniProt P35968). As to the kind of experiment: FLK-1 autophosphorylation assay in vitro (ELISA). It is filed as biochemical. Further details: host or cells: FLK-1/NIH cells (NIH fibroblast line); lysate captured on L4 or E38 anti-FLK-1 antibody. The note with it: FLK-1 autophosphorylation in vitro, immobilized FLK-1 from FLK-1/NIH cell lysate. The source says: The following protocol describes the ELISA procedures used to determine the FLK-1 autophosphorylation activity in vitro. The procedure also describes the protocol for the initial screening of indolinone compounds. 2. FLK-1/NIH cells: NIH fibroblast line overexpressing human FLK-1 clone 3 (MPI, Martinsried, Germany). 6. L4 or […]: monoclonal antibody specific for FLK-1; purified by protein-A agarose affinity chromatography (SUGEN, Inc., Redwood City, Calif.). 2. Remove the medium and wash the cells twice with PBS. Lyse with HNTG lysis buffer. Collect all lysates and mix them on a vortex for 20-30 seconds. 1. Coat Corning 96-well ELISA plates with 2 ug/well of purified L4 (or […]) in 100 μL of PBS overnight at 4° C. 5. Dilute lysate in PBS to give final concentration of 50 ug/100 μL. Add 100 μL of diluted lysate per well. Incubate with shaking at 4° C. overnight. 7. Add 80 μL of kinase buffer to the wells (negative control wells get 90 μL). 8. Dilue compounds (normally 10 fold) into wells of a polypropylene plate containing 20% DMSO in TBS. 9. Add 10 μL of the prediluted compounds to the ELISA wells containing immobilized FLK-1 and shake. Control wells receive no compound. […] When the color in the positive control wells reaches an absorbance of about 0.35-0.4, read plates on Dynatech MR7000 ELISA reader. The IC50 values measured in the above assay for the compound of formula VI are depicted in Table 1: […]
(In general: An ELISA detects its analyte on a solid surface through an enzyme-linked reagent.)

The target of a further test is EGFR (Homo sapiens, UniProt P00533). Kind of test: Biochemical EGFR assay (ELISA, A431 cell lysate). Also noted: Add 7 μg A431 cell lysate per well (EGFR source); endogenous in cells; host or cells: A431 cell lysate, captured on 05-101 anti-EGFR antibody. Particulars: A431 cell lysate as EGFR source. The source says: The following protocol describes the procedures used to analyze protein tyrosine kinase activity on the EGFR in an Elisa. The procedure also describes the protocol for the initial screening of drugs for inhibition or activation of protein tyrosine kinase activity.
Chain of EGFR (P00533 25-1210): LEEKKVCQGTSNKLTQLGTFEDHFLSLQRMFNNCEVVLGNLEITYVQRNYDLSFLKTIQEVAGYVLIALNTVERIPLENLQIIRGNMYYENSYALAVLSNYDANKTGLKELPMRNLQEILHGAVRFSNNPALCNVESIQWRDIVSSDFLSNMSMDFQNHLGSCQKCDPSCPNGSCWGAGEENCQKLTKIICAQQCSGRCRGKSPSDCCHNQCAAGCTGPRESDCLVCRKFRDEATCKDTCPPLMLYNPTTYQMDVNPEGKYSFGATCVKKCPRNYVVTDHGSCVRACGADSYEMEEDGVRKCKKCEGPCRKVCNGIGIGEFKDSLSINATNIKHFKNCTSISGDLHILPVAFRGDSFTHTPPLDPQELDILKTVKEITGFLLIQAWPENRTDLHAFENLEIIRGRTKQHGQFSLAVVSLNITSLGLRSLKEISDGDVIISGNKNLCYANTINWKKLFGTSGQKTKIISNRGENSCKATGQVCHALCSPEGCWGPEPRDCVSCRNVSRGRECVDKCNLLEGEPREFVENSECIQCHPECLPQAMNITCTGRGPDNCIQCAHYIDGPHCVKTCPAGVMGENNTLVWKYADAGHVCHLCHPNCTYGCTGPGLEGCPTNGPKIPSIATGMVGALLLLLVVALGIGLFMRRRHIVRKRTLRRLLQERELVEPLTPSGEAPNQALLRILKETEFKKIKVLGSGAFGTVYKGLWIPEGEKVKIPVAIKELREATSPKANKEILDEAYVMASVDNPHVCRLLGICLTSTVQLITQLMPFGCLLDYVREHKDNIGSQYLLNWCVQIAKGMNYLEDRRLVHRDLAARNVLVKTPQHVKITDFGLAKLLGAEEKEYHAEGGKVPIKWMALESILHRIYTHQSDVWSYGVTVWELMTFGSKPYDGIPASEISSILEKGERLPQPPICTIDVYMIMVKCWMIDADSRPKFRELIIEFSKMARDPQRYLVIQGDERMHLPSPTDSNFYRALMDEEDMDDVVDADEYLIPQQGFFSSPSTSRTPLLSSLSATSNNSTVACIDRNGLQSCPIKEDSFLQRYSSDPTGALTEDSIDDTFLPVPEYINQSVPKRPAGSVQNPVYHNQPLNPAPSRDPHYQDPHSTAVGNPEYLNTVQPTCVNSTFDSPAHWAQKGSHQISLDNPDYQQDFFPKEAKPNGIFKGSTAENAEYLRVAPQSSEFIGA
A431 cells are available from a variety of commercial sources and may be used lysed using conventional methods known to those skilled in the art or as described for lysis of the 3T3 cells in the EGF cellular assay described herein. −80° C., 1 mL aliquots
1. Coat Corning 96-well elisa plates with 0.5 μg per well 05-101 antibody. Bring final volume to 100 μL per well with PBS. Coat plates overnight at 4° C.
5. Add 7 μg A431 cell lysate per well (EGFR source). Add PBS to final volume of 100 μL per well. Incubate 30 minutes while shaking.
7. At this point, drugs or extracts are added to the wells. Dilute drugs/extracts 1:100 (unless specified otherwise) in TBS+10% DMSO in 96-well polypropylene plates. Add 120 μL TBS to ELISA plate containing captured EGFR. […] Incubate plate 30 minutes while shaking.
8. […] (150 μL final volume in well with 3 μM ATP/5 mM MnCl2 final concentration in well.) Incubate 5 minutes while shaking vigorously.
9. […]
17. Read assay on Dynatech MR7000 elisa reader.
The IC50 values measured in the above assay for the compound of formula VI are depicted in Table 2: […]

This passage reports IC50 results from patent publication US6514981B1, “Methods of modulating tyrosine protein kinase function with indolinone compounds” (Sugen, Inc., priority 1998, dated 2003).

Chain of human FLK-1 (P35968 20-1356): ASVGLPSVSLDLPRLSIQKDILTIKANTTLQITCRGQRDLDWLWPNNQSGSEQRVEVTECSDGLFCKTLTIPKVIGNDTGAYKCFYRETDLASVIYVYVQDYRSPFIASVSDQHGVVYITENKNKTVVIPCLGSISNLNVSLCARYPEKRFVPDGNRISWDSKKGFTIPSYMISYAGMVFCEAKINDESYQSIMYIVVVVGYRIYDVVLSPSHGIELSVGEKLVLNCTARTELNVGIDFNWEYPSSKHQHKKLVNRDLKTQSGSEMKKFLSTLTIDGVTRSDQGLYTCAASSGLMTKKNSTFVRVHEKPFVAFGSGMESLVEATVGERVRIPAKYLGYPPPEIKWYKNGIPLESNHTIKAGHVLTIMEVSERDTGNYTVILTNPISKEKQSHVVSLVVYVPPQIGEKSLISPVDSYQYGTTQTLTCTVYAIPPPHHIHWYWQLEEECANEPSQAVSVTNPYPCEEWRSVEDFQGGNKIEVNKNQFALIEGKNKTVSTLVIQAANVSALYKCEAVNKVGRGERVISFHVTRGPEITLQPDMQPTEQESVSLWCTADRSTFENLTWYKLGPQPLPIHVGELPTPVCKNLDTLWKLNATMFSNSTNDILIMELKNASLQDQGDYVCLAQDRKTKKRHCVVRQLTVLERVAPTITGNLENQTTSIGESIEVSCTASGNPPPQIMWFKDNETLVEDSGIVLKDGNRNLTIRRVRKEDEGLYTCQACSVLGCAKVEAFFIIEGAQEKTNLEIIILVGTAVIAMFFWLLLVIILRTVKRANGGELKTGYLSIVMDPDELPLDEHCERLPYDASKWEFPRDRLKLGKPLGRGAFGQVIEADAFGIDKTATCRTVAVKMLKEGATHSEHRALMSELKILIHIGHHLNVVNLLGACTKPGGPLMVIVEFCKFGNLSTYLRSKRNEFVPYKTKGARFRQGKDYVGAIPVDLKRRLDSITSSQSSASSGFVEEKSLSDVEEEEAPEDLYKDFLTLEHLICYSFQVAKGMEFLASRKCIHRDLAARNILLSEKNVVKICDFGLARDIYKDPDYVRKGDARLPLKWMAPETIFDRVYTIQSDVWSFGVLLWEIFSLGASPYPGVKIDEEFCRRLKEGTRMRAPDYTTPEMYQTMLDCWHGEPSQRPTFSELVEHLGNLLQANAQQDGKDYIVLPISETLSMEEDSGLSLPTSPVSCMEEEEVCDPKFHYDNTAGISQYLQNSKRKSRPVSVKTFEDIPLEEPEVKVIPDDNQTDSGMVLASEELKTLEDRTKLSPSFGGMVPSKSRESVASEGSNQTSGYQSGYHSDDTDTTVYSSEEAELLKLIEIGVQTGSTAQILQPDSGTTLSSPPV

Consider `Cc1cc(/C=C2/C(=O)Nc3ccccc32)c(C)c2c1[nH]c1ccccc12` [VI], for which the IC50 (usually the concentration that inhibits the measured activity by half) in the test with C6 cells was 1.55 µM; in the test on 3T3EGFR, 7.03 µM; against human FLK-1, more than 50 µM; against EGFR, more than 50 µM.
